Assay [1] relates to crabgrass, large. Description: Test A preemergence. It counts as in vivo, Digitaria sanguinalis. As to conditions: Preemergence, 1000 g ai/ha; 0 to 100 scale, 0 no effect, 100 complete control. The method, boiled down:
(§1)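 Visual injury ratings, 0 = no effect to 100 = complete control, taken about 10 days after treatment against untreated controls. Test chemicals, in a non-phytotoxic surfactant-containing solvent, were sprayed onto soil preemergence or onto one- to two-leaf plants (2–10 cm) postemergence, in loam–sand soil under greenhouse conditions.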

For assay [2], the system named is wheat. Put plainly: Test A preemergence. It counts as in vivo, Triticum aestivum. As to conditions: Preemergence, 1000 g ai/ha; 0 to 100 scale, 0 no effect, 100 complete control. The procedure, abridged: as §1
Assay [3] deals with wheat. Description: Test A postemergence. The settings on record: Postemergence, 1000 g ai/ha; visual rating after approx. 10 days, 0 to 100 scale (0 no effect, 100 complete control). The assay is classed as in vivo, Triticum aestivum. The method, boiled down:
as §1

In assay [4] the test system is blackgrass. Description: Test C postemergence. The assay is classed as in vivo, Alopecurus myosuroides. The settings on record: for Blackgrass plant response rating: Postemergence, 31 g ai/ha, scale 0 to 100; for Plant response rating, Blackgrass: postemergence. The source says: (§2) Seeds of plant species selected from blackgrass (Alopecurus myosuroides), ryegrass, Italian (Italian ryegrass, Lolium multiflorum), wheat (winter wheat, Triticum aestivum), galium (catchweed bedstraw, Galium aparine), corn (Zea mays), crabgrass, large (large crabgrass, Digitaria sanguinalis), foxtail, giant (giant foxtail, Setaria faberii), johnsongrass (Sorghum halepense), lambsquarters (Chenopodium album), morningglory (Ipomoea coccinea), nutsedge, yellow (yellow nutsedge, Cyperus esculentus), pigweed (redroot pigweed, Amaranthus retroflexus), ragweed (common ragweed, Ambrosia elation), soybean (Glycine max), barnyardgrass (Echinochloa crus-galli), oilseed rape (Brassica napus), waterhemp (common waterhemp, Amaranthus rudis), oat, wild (wild oat, Avena fatua), kochia (Kochia scoparia), Surinam grass (Brachiaria decumbens), foxtail, green (green foxtail, Setaria viridis), goosegrass (Eleusine indica), bromegrass, downy (downy bromegrass, Bromus tectorum), nightshade (eastern black nightshade, Solanum ptycanthum), cocklebur (common cocklebur, Xanthium strumarium), cupgrass, woolly (woolly cupgrass, Eriochloa villosa), bermudagrass (Cynodon dactylon), sunflower, (common oilseed sunflower, Helianthus annuus), Russian thistle (Salsola kali), and velvetleaf (Abutilon theophrasti) were planted into a blend of loam soil and sand and treated preemergence with test chemicals formulated in a non-phytotoxic solvent mixture which included a surfactant.
(§3) At the same time, plants selected from these crop and weed species and also chickweed (common chickweed, Stellaria media), canarygrass (littleseed canarygrass, Phalaris minor), and deadnettle (henbit deadnettle, Lamium amplexicaule), were planted in pots containing Redi-Earth® planting medium (Scotts Company, 14111 Scottslawn Road, Marysville, Ohio 43041) comprising spaghnum peat moss, vermiculite, wetting agent and starter nutrients and treated with postemergence applications of test chemicals formulated in the same manner. Plants ranged in height from 2 to 18 cm (1- to 4-leaf stage) for postemergence treatments. Treated plants and controls were maintained in a greenhouse for 13 to 15 days, after which time all species were compared to controls and visually evaluated. Plant response ratings, summarized in Table C, are based on a scale of 0 to 100 where 0 is no effect and 100 is complete control. A dash (-) response means no test result.

Assay [5] concerns soybean. Description: Test C postemergence. As to conditions: postemergence; for Soybean plant response rating: 62 g ai/ha, scale 0 to 100. It counts as in vivo, Glycine max.
From the text: as §2, §3

Assay [6] has as its system kochia. Put plainly: Test C postemergence. As to conditions: for Kochia plant response rating: Postemergence, 31 g ai/ha, scale 0 to 100; for Plant response rating, Kochia: postemergence. The assay is classed as in vivo, Kochia scoparia.
From the text: as §2, §3

The test system of assay [7] is velvetleaf. Description: Test C postemergence. The assay is classed as in vivo, Abutilon theophrasti. The settings on record: postemergence; for Velvetleaf plant response rating: 62 g ai/ha, scale 0 to 100.
From the text: as §2, §3

The mark [8] stands for this setting: 250 g ai/ha, scale 0 to 100 (0 no effect, 100 complete control).
The mark [9] stands for this setting: 62 g ai/ha, scale 0 to 100, 0 no effect, 100 complete control.
Setting [10] is: 125 g ai/ha, scale 0 to 100, 0 no effect, 100 complete control.

Consider `CCCNC(=O)c1cc(CC)n(Cc2cccc(OC(F)(F)F)c2)n1` [Compound 27], for which, in assay [1], the “Crabgrass, Large plant response rating” value amounted to 100. Also, the “Wheat plant response rating” value is reported as 20 in assay [2] and 40 in assay [3]. The “Blackgrass plant response rating” value in assay [4] came to 10. Moreover, the “Plant response rating, Blackgrass” value in assay [4] (setting [8]) was found to be 20; in assay [4] (setting [9]), 15; in assay [4] (setting [10]), 15. For the same molecule, the “Soybean plant response rating” value in assay [5] is 65. For the same molecule, the “Plant response rating, Soybean” value turned out to be 75 in assay [5] (setting [8]) and 70 in assay [5] (setting [10]). Moreover, the “Kochia plant response rating” value in assay [6] is listed as 35. Also, the “Plant response rating, Kochia” value came to 95 in assay [6] (setting [8]), 70 in assay [6] (setting [9]) and 80 in assay [6] (setting [10]). Further, the “Velvetleaf plant response rating” value in assay [7] was 15. The “Plant response rating, Velvetleaf” value is recorded as 45 in assay [7] (setting [8]) and 20 in assay [7] (setting [10]).

For `CCc1cc(C(=O)NCC(F)(F)F)nn1Cc1cccc(OC(F)(F)F)c1` [Compound 20], the “Crabgrass, Large plant response rating” value in assay [1] was 90. Further, the “Wheat plant response rating” value is on record as 20 in assay [2] and 40 in assay [3]. Further, the “Blackgrass plant response rating” value in assay [4] amounted to 5. Also, the “Plant response rating, Blackgrass” value in assay [4] (setting [8]) stood at 20; in assay [4] (setting [9]), 5; in assay [4] (setting [10]), 15. In assay [5], the “Soybean plant response rating” value came out at 45. In addition, the entries for the “Plant response rating, Soybean” value in assay [5] (setting [8]) and in assay [5] (setting [10]) were 75 and 60, respectively. In assay [6], the “Kochia plant response rating” value was determined as 90. For the same molecule, the “Plant response rating, Kochia” value in assay [6] (setting [8]) is 98; in assay [6] (setting [9]), 95; in assay [6] (setting [10]), 98. In addition, in assay [7], the “Velvetleaf plant response rating” value was found to be 45. Further, the “Plant response rating, Velvetleaf” value was found to be 60 in assay [7] (setting [8]) and 45 in assay [7] (setting [10]).
